From patent US20250339569A1, “CARBONIC ANHYDRASE IX LIGANDS” (priority 2021, published 2025)
Starred links: 1 amine or outer side, 2 acyl side, 3 side chain; linkers in the order of their positions; H or OH if unused. Positions of bridges follow the written chain, without caps; N, C: chain ends. Non-standard residues stand in square brackets, D forms with d. Residues, ends and D or L forms follow the SMILES beside them. Groups on a side chain read outwards from the residue. *: point of attachment. DOTA = O=C(O)CN1CCN(CC(=O)O)CCN(CC(=O)*)CCN(CC(=O)O)CC1; X7 = O=C([C@H](Cc1cccc(N[*:3])c1)N[*:1])[*:2]; Phe(4-NH2) = Nc1ccc(C[C@H](N)C(=O)O)cc1; X55 = O=C1Nc2ccc(C(=O)*)cc2S(=O)(=O)N1; mXylylene = c1cc(C[*:1])cc(C[*:2])c1; Trx = NC[C@H]1CC[C@H](C(=O)O)CC1; X2 = O=C(CN1CCC(N[*:1])CC1)[*:2]; tBuAla = CC(C)(C)C[C@H](N)C(=O)O; Aic = NC1(C(=O)O)Cc2ccccc2C1; Pen = CC(C)(S)[C@H](N)C(=O)O; X71 = O=C1NC(=O)C(CC(=O)*)N1; 4Amb = NCc1ccc(C(=O)O)cc1; Ac6c = NC1(C(=O)O)CCCCC1; Aib = CC(C)(N)C(=O)O; Sar = CNCC(=O)O

biological target: T1, CAIX-expressing human HT-29 colorectal cancer cells (Homo sapiens, UniProt Q16790); assay: FACS binding assay (IC50 determination, competition with tracer 3BP-2776 or 3BP-4149); settings: FACS binding assay, HT-29 cells, competition with tracer 3BP-2776 (10 nM, biotin-labeled), 4° C., 1 hour; read-out: pIC50 category (activity) (converted)
T1 construct: CAIX-expressing human HT-29 colorectal cancer cells; host or cells: HT-29 human colorectal cancer cells
Outline: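 HT-29 cells in FACS buffer (PBS, 1% FCS) at 500.000 cells/ml were exposed to compounds competing with a labelled tracer, with biotinylated compounds detected by 1 μg/mL APC-streptavidin for 30 min on ice. APC/Cy5 median fluorescence was read by flow cytometry and IC50 derived by 4PL fit.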

First: CC(=O)N[C@H](C(=O)N[C@@H](Cc1ccc(O)cc1)C(=O)N[C@H]1CSCc2cccc(c2)CSC[C@@H](C(N)=O)NC(=O)[C@H](CO)NC(=O)[C@H](Cc2c[nH]c3ccccc23)NC(=O)[C@@H]2CCC(=O)NCCCC[C@H](NC(=O)[C@H]3CCCN3C(=O)[C@H](CCC(=O)O)NC1=O)C(=O)N[C@@H](Cc1c[nH]c3ccccc13)C(=O)NC1(CCCCC1)C(=O)N2)C(C)C [3BP-3961] (Ac-VYCE[dP]KW[Ac6c]EWSC-NH2; linker 3-12 via mXylylene; lactam 6-9)
Second: CC(=O)N[C@H](C(=O)N[C@@H](Cc1ccc(O)cc1)C(=O)N[C@H]1CSCc2cccc(c2)CSC[C@@H](C(N)=O)NC(=O)[C@H](CO)NC(=O)[C@H](Cc2c[nH]c3ccccc23)NC(=O)[C@H]2CC(=O)NCCCC[C@H](NC(=O)[C@H]3CCCN3C(=O)[C@H](CCC(=O)O)NC1=O)C(=O)N[C@@H](Cc1c[nH]c3ccccc13)C(=O)N[C@@H](CC(C)C)C(=O)N2)C(C)C [3BP-4043] (Ac-VYCE[dP]KWL[dD]WSC-NH2; linker 3-12 via mXylylene; lactam 6-9)
The IC50 of the first is lower: 10 to 79.4 nM for the first, 100 to 794 nM for the second.

First: CC(C)C[C@@H]1NC(=O)[C@H](Cc2cccc(NC(=O)Cn3cc(C(=O)NO)nn3)c2)NC(=O)[C@H](CC(=O)O)NC(=O)[C@H]2CCCN2C(=O)[C@H](CCC(=O)O)NC(=O)[C@@H](NC(=O)[C@H](CCC(N)=O)NC(=O)CN2CCN(C(=O)CN3CCN(CC(=O)O)CCN(CC(=O)O)CCN(CC(=O)O)CC3)CC2)CSCc2cccc(c2)CSC[C@@H](C(N)=O)NC(=O)[C@H](CO)NC(=O)[C@H](Cc2c[nH]c3ccccc23)NC(=O)[C@H]([C@@H](C)O)NC1=O [3BP-4847]
Second: CC(=O)N[C@H](C(=O)N[C@@H](Cc1ccc(O)cc1)C(=O)N[C@H]1CSCc2cccc(c2)CSC(C)(C)[C@@H](C(N)=O)NC(=O)[C@H](CO)NC(=O)[C@H](Cc2c[nH]c3ccccc23)NC(=O)[C@@H]2CCC(=O)NCCCC[C@H](NC(=O)[C@H]3CCCN3C(=O)[C@H](CCC(=O)O)NC1=O)C(=O)N[C@@H](Cc1c[nH]c3ccccc13)C(=O)N[C@@H](CC(C)C)C(=O)N2)C(C)C [3BP-3963] (Ac-VYCE[dP]KWLEWS[Pen]-NH2; linker 3-12 via mXylylene; lactam 6-9)
The IC50 of the first is higher: 100 to 794 nM for the first, under 10 nM for the second.

same assay, conditions: FACS binding assay, HT-29 cells, competition with tracer 3BP-4149 (3 nM, Cy5-labeled), 4° C., 1 hour; read-out: pIC50 category (activity) (converted)

First: CC(C)C[C@@H]1NC(=O)[C@H](Cc2cccc(NC(=O)c3ccc4c(c3)S(=O)(=O)NC(=O)N4)c2)NC(=O)[C@H](CC(=O)O)NC(=O)[C@H]2CCCN2C(=O)[C@H](CCC(=O)O)NC(=O)[C@@H](NC(=O)[C@H](Cc2ccc(O)cc2)NC(=O)[C@@H](NC(=O)CN2CCC(NC(=O)CN3CCN(CC(=O)O)CCN(CC(=O)O)CCN(CC(=O)O)CC3)CC2)C(C)C)CSCc2cccc(c2)CSC[C@@H](C(N)=O)NC(=O)[C@H](CO)NC(=O)[C@H](Cc2c[nH]c3ccccc23)NC(=O)[C@H]([C@@H](C)O)NC1=O [3BP-4415] ({DOTA}-[X2]VYCE[dP]D[X7](X55)LTWSC-NH2; linker 4-13 via mXylylene)
Second: CC(C)C[C@@H]1NC(=O)[C@H](Cc2ccc(NC(=O)CC3NC(=O)NC3=O)cc2)NC(=O)[C@H](CC(=O)O)NC(=O)[C@H]2CCCN2C(=O)[C@H](CCC(=O)O)NC(=O)[C@@H](NC(=O)[C@H](Cc2ccc(O)cc2)NC(=O)[C@@H](NC(=O)CN2CCC(NC(=O)CN3CCN(CC(=O)O)CCN(CC(=O)O)CCN(CC(=O)O)CC3)CC2)C(C)C)CSCc2cccc(c2)CSC[C@@H](C(N)=O)NC(=O)[C@H](CO)NC(=O)[C@H](Cc2c[nH]c3ccccc23)NC(=O)[C@H]([C@@H](C)O)NC1=O (some centres unmarked) [3BP-4458] ({DOTA}-[X2]VYCE[dP]D[Phe(4-NH2)](X71)LTWSC-NH2; linker 4-13 via mXylylene)
The IC50 of the first is higher: 100 to 794 nM for the first, 10 to 79.4 nM for the second.

CC(C)C[C@@H]1NC(=O)[C@H](Cc2c[nH]c3ccccc23)NC(=O)[C@H](CCC(=O)NCc2ccc(C(N)=O)cc2)NC(=O)[C@H]2CCCN2C(=O)[C@H](CCC(=O)O)NC(=O)[C@@H](NC(=O)[C@H](Cc2ccc(O)cc2)NC(=O)[C@@H](NC(=O)CN2CCC(NC(=O)CN3CCN(CC(=O)O)CCN(CC(=O)O)CCN(CC(=O)O)CC3)CC2)C(C)C)CSCc2cccc(c2)CSC[C@@H](C(N)=O)NC(=O)[C@H](CO)NC(=O)[C@H](Cc2c[nH]c3ccccc23)NC(=O)[C@H]([C@@H](C)O)NC1=O [3BP-4345] ({DOTA}-[X2]VYCE[dP]E([4Amb-NH2])WLTWSC-NH2; linker 4-13 via mXylylene) gave an IC50 of 10 to 79.4 nM.

same assay, conditions: FACS competition on HT-29 cells, Tracer ID 3BP-2776 (10 nM, biotin-labeled), 4° C., 1 hour; read-out: pIC50 category (activity) (converted)

First: CC(=O)N[C@H](C(=O)N[C@@H](Cc1ccc(O)cc1)C(=O)N[C@H]1CSCc2cccc(c2)CSC[C@@H](C(N)=O)NC(=O)[C@H](CO)NC(=O)[C@H](Cc2c[nH]c3ccccc23)NC(=O)[C@@H]2CCC(=O)NCCCC[C@H](NC(=O)[C@H]3CCCN3C(=O)[C@H](CCC(=O)O)NC1=O)C(=O)N[C@@H](Cc1c[nH]c3ccccc13)C(=O)N[C@@H](CC(C)C)C(=O)N2)C(C)C [3BP-3890] (Ac-VYCE[dP]KWLEWSC-NH2; linker 3-12 via mXylylene; lactam 6-9)
Second: CC(=O)N[C@H](C(=O)N[C@@H](Cc1ccc(O)cc1)C(=O)N[C@H]1CSCc2cccc(c2)CSC[C@@H](C(N)=O)NC(=O)[C@H](CO)NC(=O)[C@H](Cc2c[nH]c3ccccc23)NC(=O)[C@@H]2CCCCNC(=O)CC[C@H](NC1=O)C(=O)N1CCC[C@@H]1C(=O)N[C@@H](CC(=O)O)C(=O)N[C@@H](Cc1c[nH]c3ccccc13)C(=O)N[C@@H](CC(C)C)C(=O)N2)C(C)C [3BP-3899] (Ac-VYCE[dP]DWLKWSC-NH2; linker 3-12 via mXylylene; lactam 4-9)
The IC50 of the first is lower: under 10 nM for the first, 100 to 794 nM for the second.

CC(C)[C@H](NC(=O)CN1CCC(NC(=O)CN2CCN(CC(=O)O)CCN(CC(=O)O)CCN(CC(=O)O)CC2)CC1)C(=O)N[C@@H](Cc1ccc(O)cc1)C(=O)N[C@H]1CSCc2cccc(c2)CSC[C@@H](C(N)=O)NC(=O)[C@H](CO)NC(=O)[C@H](Cc2c[nH]c3ccccc23)NC(=O)[C@H]([C@@H](C)O)NC(=O)C2(Cc3ccccc3C2)NC(=O)[C@H](Cc2c[nH]c3ccccc23)NC(=O)[C@H](CC(=O)O)NC(=O)[C@H]2CCCN2C(=O)[C@H](CCC(=O)O)NC1=O [3BP-3586] ({DOTA}-[X2]VYCE[dP]DW[Aic]TWSC-NH2; linker 4-13 via mXylylene) and CC(C)C[C@@H]1NC(=O)[C@H](Cc2c[nH]c3ccccc23)NC(=O)[C@H](CC(=O)O)NC(=O)[C@H]2CCCN2C(=O)[C@H](CCC(=O)O)NC(=O)[C@@H](NC(=O)[C@H](Cc2ccc(O)cc2)NC(=O)[C@@H](NC(=O)[C@H]2CC[C@H](CNC(=O)CN3CCN(CC(=O)O)CCN(CC(=O)O)CCN(CC(=O)O)CC3)CC2)C(C)C)CSCc2cccc(c2)CSC[C@@H](C(N)=O)NC(=O)[C@H](C)NC(=O)[C@H](Cc2c[nH]c3ccccc23)NC(=O)[C@H]([C@@H](C)O)NC1=O [3BP-3430] ({DOTA-Trx}-VYCE[dP]DWLTWAC-NH2; linker 3-12 via mXylylene) cannot be ordered by IC50: under 10 nM for the first, under 10 nM for the second.

CC(=O)N[C@H](C(=O)N[C@@H](Cc1ccc(O)cc1)C(=O)N[C@H]1CSCc2cccc(c2)CSC(C)(C)[C@@H](C(N)=O)NC(=O)[C@H](CCC(N)=O)NC(=O)[C@H](Cc2c[nH]c3ccccc23)NC(=O)[C@H]([C@@H](C)O)NC(=O)[C@H](CC(C)C)NC(=O)[C@H](Cc2c[nH]c3ccccc23)NC(=O)[C@H](CC(=O)O)NC(=O)CNC(=O)[C@H](CCC(=O)O)NC1=O)C(C)C [3BP-3064] (Ac-VYCEGDWLTWQ[Pen]-NH2; linker 3-12 via mXylylene) and CC(=O)N[C@H](C(=O)N[C@@H](Cc1ccc(O)cc1)C(=O)N[C@H]1CSCc2cccc(c2)CSC[C@@H](C(N)=O)NC(=O)[C@H](CCC(N)=O)NC(=O)[C@H](Cc2c[nH]c3ccccc23)NC(=O)[C@H]([C@@H](C)O)NC(=O)[C@H](CC(C)C)NC(=O)[C@H](Cc2c[nH]c3ccccc23)NC(=O)[C@H](CC(=O)O)NC(=O)C(C)(C)NC(=O)[C@H](CCC(=O)O)NC1=O)C(C)C [3BP-3059] (Ac-VYCE[Aib]DWLTWQC-NH2; linker 3-12 via mXylylene) cannot be ordered by IC50: under 10 nM for the first, under 10 nM for the second.

Compared with CC(=O)N[C@H](C(=O)N[C@@H](Cc1ccc(O)cc1)C(=O)N[C@H]1CSCc2cccc(c2)CSC[C@@H](C(N)=O)NC(=O)[C@H](CCC(N)=O)NC(=O)[C@H](Cc2c[nH]c3ccccc23)NC(=O)[C@@H](C)NC(=O)[C@H](CC(C)C)NC(=O)[C@H](Cc2c[nH]c3ccccc23)NC(=O)[C@H](CC(=O)O)NC(=O)CN(C)C(=O)[C@H](CCC(=O)O)NC1=O)C(C)C [3BP-3309] (Ac-VYCE[Sar]DWL[dA]WQC-NH2; linker 3-12 via mXylylene), CC(=O)N[C@H](C(=O)N[C@@H](Cc1ccc(O)cc1)C(=O)N[C@H]1CSCc2cccc(c2)CSC[C@@H](C(N)=O)NC(=O)[C@H](CCC(N)=O)NC(=O)[C@H](Cc2c[nH]c3ccccc23)NC(=O)[C@H]([C@@H](C)O)NC(=O)[C@H](CC(C)C)NC(=O)[C@H](Cc2c[nH]c3ccccc23)NC(=O)[C@H](CC(=O)O)NC(=O)[C@@H](C)NC(=O)[C@H](CCC(=O)O)NC1=O)C(C)C [3BP-3046] (Ac-VYCE[dA]DWLTWQC-NH2; linker 3-12 via mXylylene) is lower in IC50: 100 to 794 nM for the first, under 10 nM for the second.

CC[C@H](C)[C@H](NC(C)=O)C(=O)N[C@@H](Cc1ccc(O)cc1)C(=O)N[C@H]1CSCc2cccc(c2)CSC[C@@H](C(N)=O)NC(=O)[C@H](CO)NC(=O)[C@H](Cc2c[nH]c3ccccc23)NC(=O)[C@H]([C@@H](C)O)NC(=O)[C@H](CC(C)C)NC(=O)[C@H](Cc2c[nH]c3ccccc23)NC(=O)[C@H](CC(=O)O)NC(=O)[C@H]2CCCN2C(=O)[C@H](CCC(=O)O)NC1=O [3BP-3568] (Ac-IYCE[dP]DWLTWSC-NH2; linker 3-12 via mXylylene) and CC(=O)N[C@H](C(=O)N[C@@H](Cc1ccc(O)cc1)C(=O)N[C@H]1CSCc2cccc(c2)CSC[C@@H](C(N)=O)NC(=O)[C@H](CCC(N)=O)NC(=O)[C@H](Cc2c[nH]c3ccccc23)NC(=O)[C@H]([C@@H](C)O)NC(=O)[C@H](CC(C)(C)C)NC(=O)[C@H](Cc2c[nH]c3ccccc23)NC(=O)[C@H](CC(=O)O)NC(=O)CNC(=O)[C@H](CCC(=O)O)NC1=O)C(C)C [3BP-3065] (Ac-VYCEGDW[tBuAla]TWQC-NH2; linker 3-12 via mXylylene) cannot be ordered by IC50: under 10 nM for the first, under 10 nM for the second.
